The nature of data set [1]: Ibuprofen lysinate vehicle screening. To be noted: ibuprofen lysinate (IBL) in the excipient named; outcome in Comments cell beside.
On data set [2], the source says:
Different solvent systems such as oils and medium chain triglycerides, solubilizing agents, emulsifying agents (self-emulsifying) and surfactants for the liquid filled capsules were screened for their effectiveness in solubilizing ibuprofen and are listed in Tables 5 to 6.
The screening method involved the following steps:
2. Step T2: the sample was heated using a hot plate and stirrer to facilitate ibuprofen solubility in the vehicle and the samples were left overnight.
3. […] Additional ibuprofen was added by reheating selected T2 solutions until re-crystallization or precipitation was observed.
Observations on whether ibuprofen appeared as dissolved, a suspension (fine suspension) or crystallized (agglomerates) were reported.

A short description of data set [3]: Ibuprofen vehicle screening (single excipients). The class given is physicochemical. To be noted: for Approx. Percentage of API that Resulted in Precipitate: ibuprofen USP in the excipient named, precipitate within approx. 24 h after cooling to room temperature, * = close to saturation point, only a few crystals. As to the method:
Initially, ibuprofen United States Pharmacopeia grade (USP) powder was mixed at room temperature with individual excipients being considered as shown in Table 1. Ibuprofen was incrementally added and mixed until a precipitate was observed. […] Observations were made daily to determine if the mixture would remain a solution or precipitate out within an approximately 24 hour period.

A short description of data set [4]: Water activity (Rotronic Hygrolab). The class given is physicochemical. The settings on record: water activity at 19.56-19.87 °C.

Like-named read-outs stand apart in the source and are kept apart here.

Consider `OCC(O)CO` [Glycerin], for which the “Approximate Percentage of IBL salt added in powder form to excipient and heated” value in data set [1] came out at 2.2%. Moreover, in data set [2], the “Amt of API added” value stood at 250.0 mg and the Observation entry was “Turbid (T1)”. In data set [3], the “Approx. Percentage of API that Resulted in Precipitate” value is 2.5%.

Take `CC(O)CO` (stereo not drawn) [Propylene Glycol]: the “Approximate Percentage of IBL salt added in powder form to excipient and heated” value in data set [1] is given as 2.4%. Also, in data set [2] (24 h), the “Amt of API added” value is on record as 4000.0 mg and the Observation entry is recorded as “Crystallized (T3)”. Also, in data set [3], the “Approx. Percentage of API that Resulted in Precipitate” value is given as 28 * %. Further, the “Approx. Max. Percentage of API in Solution Tested” value in data set [3] (ibuprofen USP in the single excipient named, melted in on hot plate, remained in solution approx. 24 h) worked out at 17%.

With `O` [Water], in data set [4], the “AW Reading” value turned out to be 0.999.

As for Castor Oil, in data set [2], the “Amt of API added” value amounted to 257.8 mg and the Observation result is reported as “Solidify (T1)”.

Source of the values: patent publication US20080075767A1, “IBUPROFEN-CONTAINING LIQUID FILLED HARD CAPSULES” (priority 2006, published 2008).
